In patent US10913068B2, “Testing device, microfluidic chip and nucleic acid testing method” (Nanyang Technological University, priority 2015, dated 2021):
Values joined by “and” are separate entries in the source; they are usually repeats but may differ in a detail not shown here. Identical values can stand only once. Like-named read-outs stand apart in the source and are kept apart here.

Tests used:
AST mRNA [1] = conditions: mouse liver tissue
Procedure: (§1) A short-term (5 days) preclinical drug toxicity experiment was performed on common black laboratory mice (Strain name: C57BL/6J; Age: 5-7 weeks). All experiments were performed in accordance with the National Institutes of Health Guide for the care and use of laboratory animals (NIH Publications No. 80-23, revised 1996) and conducted after approval by the Institutional Animal Care and Use Committee of Houston Methodist Research Institute (HMRI).
(§2) A total of eight mice were divided into two equal groups, with one mouse in each group designated as the control and the remaining three subjected to drug treatment. […] The drug was administered through intraperitoneal route, with the first group having a single dose administered on the 1st day only; and the second group having 3 doses administered on the 1st, 3rd and 5th days. The animals were subsequently euthanized following standard carbon dioxide anaesthesia procedure on the 5th day after final drug administration. The mouse liver tissues were thereafter silated, and cut into equal small pieces (˜20-30 mg) and stored in RNAlater RNA Stabilization Reagent (QIAGEN®, USA) at 4° C. to prevent RNA degradation.
(§3) A liver tissue sample, weighing approximately 20-30 mg, was loaded directly into the tissue lysis chamber. The tissue sample was secured within the chamber when the tissue microhomogenizer attachment was fitted into the opening of the lysis chamber. Subsequently, 250 μL Lysis/Binding buffer was loaded into another 250 μL glass syringe (see FIG. 16, Sample Inlet), and actuated into the tissue lysis chamber at a flow rate of 200 μL/min. For tissue lysis, the microhomogenizer attachment was activated for ˜1 min to allow the liver tissue to be shredded and homogenized. After the completion of tissue lysis, the unwanted tissue debris and supernatant were removed by the micro-pillars as the homogenized tissue lysate was actuated into the mixing chamber, where the lysate was mixed with the microbeads for ˜8 mins to allow for mRNA binding.
(§4) The purified mRNA from each mouse liver tissue sample was collected in an EPPENDORF® tube preloaded with an RT-PCR master mix. To validate the efficacy of our sample preparation microfluidic chip, purified mRNA solutions extracted using our microfluidic chip was tested for their purity using the NANODROP™ 2000 (THERMOSCIENTIFIC®, Singapore), to ensure an A260/280 ratio of ˜2.0-2.2 before proceeding to the subsequent downstream applications of RT-PCR and nucleic acid detection.
(§5) Once the purified mRNA had been extracted from the liver tissue samples, 30 μL of the purified mRNA extract (i.e. elution buffer with the microbeads) was collected in an EPPENDORF® tube containing the following RT-PCR composition: 75 μL 2× SYBR Green RT-PCR reaction mix (BIORAD®, Singapore), 3.0 μL iSCRIPT™ One-Step RT-PCR reverse transcriptase (BIORAD®, Singapore) and 42 μL nuclease-free water. This 150 μL final RT-PCR assay was subsequently transferred from the EPPENDORF® tube into a 250 μL HAMILTON® glass syringe connected to the RT-PCR microfluidic chip via a 1/32″ OD tubing.
(§6) The chip-compatible thermal cycler was based on the open-source OpenPCR® (Chai Biotechnologies, USA) platform, using a custom-designed aluminium metal block for contact-based thermal cycling and an ARDUINO® microcontroller for precise temperature control (see FIG. 17—schematic diagram 1700 illustrating the multiplex microfluidic real-time RT-PCR setup). […]

ALT mRNA [2] = conditions: mouse liver tissue
Procedure: as §1, §2, §3, §4, §5, §6

[3] = system: β-actin mRNA (housekeeping gene); conditions: after 1× and 3× drug dosage (200 mg/kg body wt.); mouse liver tissue
Procedure: as §1, §2, §3, §4, §5, §6

AST mRNA [4] = conditions: for mean Ct (± S.D.), AST: 3× dosage
Procedure: as §1, §2, §5
(§7) The chip-compatible thermal cycler was based on the open-source OpenPCR® (Chai Biotechnologies, USA) platform, using a custom-designed aluminium metal block for contact-based thermal cycling and an ARDUINO® microcontroller for precise temperature control (see FIG. 17—schematic diagram 1700 illustrating the multiplex microfluidic real-time RT-PCR setup).
(§8) To provide a benchmark reference to the chip disclosed herein, the same RT-PCR assays (with addition of forward/reverse primers at 0.5 μM concentration) were amplified separately in EPPENDORF® tubes on a conventional CFX96 TOUCH™ Real-Time PCR Detection System (BIORAD®, USA).
(§9) The thermal cycling process was as follows: 70° C. for 2 mins to allow dehybridization of the captured mRNA from the microbeads, followed by 50° C. for 10 minutes for reverse transcription, subsequently with an initial denaturation step of 95° C. for 5 mins and finally 35 cycles of PCR, comprising two stages: denaturation at 95° C. for 10 s and annealing/extension at 55° C. for 30 s.
(§10) To enable simultaneous fluorescent detection of amplified cDNA for a fully-quantitative methodology, the inventors developed an image capturing system embodying a camera module with blue excitation LEDs to be mounted on the chip-compatible thermal cycler disclosed herein (FIG. 19—RT-PCR and fluorescent detection setup 1900). A 3MP CMOS camera with mounted 550 nm longpass optical filter (ISLAND OPTICAL SYSTEMS®, Singapore) was fitted onto a black opaque acrylic frame with a 470 nm blue LED module (IORODEO®, USA) to provide an excitation source for the SYBR Green 1 fluorescent dye present in the RT-PCR assay. The blue LED module was affixed at an angle of ˜45° to the plane of the microfluidic chip to minimize excitation light interference on the captured light pathway of the camera unit.

ALT mRNA [5] = conditions: for mean Ct (± S.D.), ALT: 3× dosage
Procedure: as §1, §2, §5, §7, §8, §9, §10

[6] = system: β-actin mRNA (housekeeping gene); conditions: 3× dosage; conventional qPCR machine CFX96 Touch; control 22.93 ± 0.11
Procedure: as §1, §2, §5, §7, §8, §9, §10

[7] = 1× drug dosage (200 mg/kg body wt., intraperitoneal, day 1 only)
[8] = 3× drug dosage (200 mg/kg body wt., intraperitoneal, days 1, 3, 5), normalized to untreated control
[9] = 3× dosage vs untreated control, Livak ΔΔCt method, normalized to β-actin, microfluidic data

## O=P1(N(CCCl)CCCl)NCCCO1 (stereo not drawn) [cyclophosphamide]
AST mRNA [1]; [7]
  difference in final cDNA concentration (AST) compared to untreated control: no significant difference
AST mRNA [1]; [8]
  increase in final cDNA concentration for AST: 58.7%
ALT mRNA [2]; [7]
  difference in final cDNA concentration (ALT) compared to untreated control: no significant difference
ALT mRNA [2]; [8]
  increase in final cDNA concentration for ALT: 33.3%
[3]
  β-actin mRNA expression levels: remained relatively unchanged
AST mRNA [4]; [9]
  normalized fold change (up-regulation) for AST: 1.62 fold
AST mRNA [4]; Microfluidic Chip, control 20.5 ± 0.2
  mean Ct (± S.D.), AST: 19.9 and 19.9 ± 0.2
AST mRNA [4]; conventional qPCR machine CFX96 Touch, control 20.07 ± 0.02
  mean Ct (± S.D.), AST: 19.34 ± 0.05
ALT mRNA [5]; [9]
  normalized fold change (up-regulation) for ALT: 1.31 fold
ALT mRNA [5]; Microfluidic Chip, control 28.8 ± 0.2
  mean Ct (± S.D.), ALT: 28.5 and 28.5 ± 0.3
ALT mRNA [5]; conventional qPCR machine CFX96 Touch, control 27.28 ± 0.10
  mean Ct (± S.D.), ALT: 26.75 ± 0.07
[6]
  mean Ct (± S.D.), β-actin: 23.02 ± 0.08
